Results published in article PMC11435156, “Exploring Quinazoline Nitro-Derivatives as Potential Antichagasic Agents: Synthesis and In Vitro Evaluation” (Molecules, 2024).
Like-named read-outs stand apart in the source and are kept apart here. Marks after values point to notes of the source that are not given here.

Legend:
[1] = tested on: T. cruzi Queretaro strain epimastigotes; assay: Growth of epimastigotes cultured in vitro (motile parasites counted, relative growth); assay type: cell-based, Trypanosoma cruzi; details: for S.I. LD50/ED50: HFF1 LD50 / epimastigote ED50; for IC50: Trypanosoma cruzi, read-out: Epi ED50; for antiparasitic effect, summary in words: epimastigotes and trypomastigotes, summary of Table 2; for Epi ED50 (initial screening): initial screening done in 5 mL culture
Description: Epimastigotes were grown at 28 °C.
Epimastigotes were grown in LIT medium at the exponential phase and aliquots of 1 × 10^5 parasites were dispensed in 200 µL/well in a 96-well culture plate (Corning; NY, USA). […] Control samples without the compounds were supplemented with the maximum amount of vehicle used. […] Afterwards, the number of mobile epimastigotes (motility as parameter of viability) was counted in a Neubauer chamber. Relative growth is the difference of the final density of parasites after 24 h of treatment with the compound minus the density of parasites at time 0 of exposure; these differences were further normalized to the relative growth of the culture without compound. Plots of the percentage of relative growth against compound concentration were built and data adjusted to dose–response equation with the Origin Pro software (Origin Pro version 8.0) to calculate the concentration at which the variable is decreased by 50%.

[2] = tested on: T. cruzi Queretaro strain trypomastigotes; assay: Viability of trypomastigotes (motility as parameter of viability); assay type: cell-based; details: Trypanosoma cruzi, read-out: Trypo LD50
Description: For the primary infection, 20,000 HFF1 cells/mL were inoculated in 5 mL DMEM supplemented with 10% FBS in a 175 cm^2 flask (Corning; Corning, NY, USA;) and cultivated at 37 °C and 5% CO2 for 24 h for adherence. Afterwards, the medium was changed to DMEM supplemented with 2% FBS and the cells were infected with 10 × 10^6 epimastigotes previously collected and washed with 10 mL DMEM without FBS. The cells were incubated for 48 h at 37 °C and 5% CO2 and later washed every 24 h with DMEM with 2%FBS until trypomastigotes liberation (5–7 days post infection).
For the secondary infection, LLC-MK2 cells (epithelial cells from the kidney of an adult monkey) were infected in a similar fashion to the primary infection, but using 1 × 10^6 trypomastigotes obtained from the primary infection. The released trypomastigotes were used immediately for drug treatment.
The number of mobile trypomastigotes (motility as parameter of viability) was determined using a Neubauer chamber. Data were processed as above.

[3] = tested on: HFF1 human foreskin fibroblasts; assay: Viability of human foreskin fibroblasts (trypan blue exclusion); details: for HFF1 LD50: human
Description: To evaluate the effect on cell viability, HFF1 cells cultured and washed as above were dispensed in a 96 well plate to a concentration of 1 × 10^4 cells/well in 0.2 mL and incubated for 24 h at 37 °C for adherence. […] To determine viability, cells were detached by trypsinization and then collected, and viability was determined by trypan blue exclusion.

[4] = 120 h, epimastigote growth, 5 days, single initial pulse of compound
[5] = epimastigote relative growth, 24 h treatment, 96-well plate
[6] = trypomastigote viability, 3 h treatment

SMILES	S.I. LD50/ED50 ([1]; 24 h)	S.I. LD50/ED50 ([1]; 5 days)	IC50 [1, 4] [µM]	IC50 [1, 5] [µM]	LC50 [2, 6] [µM]	HFF1 LD50 ([3]; 24 h)	HFF1 LD50 ([3]; 5 days)	LC50 ([2]; 3 h) [µM]	cytotoxicity on HFF1 ([3]; 5 days)	concentration at which cytotoxicity started to show ([3]; HFF1, 24 h treatment) [µM]	antiparasitic effect, summary in words [1]	cytotoxicity on HFF1 ([3]; 24 h treatment)	Epi ED50 (initial screening) ([1]; epimastigote growth, 24 h)
Nc1nc(N)c2cc(NCc3cc(F)ccc3F)ccc2n1 [Compound 11, N^6-(2,5-Difluorobenzyl)quinazoline-2,4,6-triamine]	≥7	≥3	20 ± 2	9 ± 1.4	> 150	>60 (4) µM	>60 (1) µM						
Nc1nc(N)c2cc(NCc3ccccc3)ccc2n1 [Compound 5]	≥5		14 ± 2	13 ± 3		>60 (4) µM	26 (2) µM	> 150					
Nc1nc(N)c2cc(NCc3cccc(Cl)c3)ccc2n1 [Compound 9]	11	≥12	8.1 ± 1.8	7.6 ± 2.5	> 150	85 ± 7 (6) µM	>100 (2) µM						
CC1CS(=O)(=O)CCN1/N=C/c1ccc([N+](=O)[O-])o1 (stereo not drawn) [Nfx, (E)-N-(3-methyl-1,1-dioxo-1,4-thiazinan-4-yl)-1-(5-nitrofuran-2-yl) methanimine, reference compound]			11.8 ± 0.1	3.8 ± 1.2									
O=C(Cn1ccnc1[N+](=O)[O-])NCc1ccccc1 [Bnz, N-benzyl-2-(2-nitroimidazol-1-yl) acetamide, reference compound]	18	7	17 ± 10	9.4 ± 1.3	183	165 ± 27 (3) µM	118 ± 14 (3) µM		high cytotoxicity	> 50			
Nc1nc(N)c2cc(NC(=O)c3ccccc3[N+](=O)[O-])ccc2n1 [Compound 2, N-(2,4-Diaminequinazolin-6-yl)-2-nitrobenzamide]	≥5	≥6.7	15 ± 3	19 ± 2	95	>100 (6) µM	>100 (2) µM						
Nc1nc(N)c2cc(NC(=O)c3ccccc3)ccc2n1 [Compound 1, N-(2,4-Diaminequinazolin-6-yl)benzamide]			> 100	> 100		>100 (6) µM	>100 (2) µM	> 150			did not showed an effect in parasites nor in cells	did not show either cytotoxicity or parasiticidal effects	
Nc1nc(N)c2cc(NCc3ccccc3[N+](=O)[O-])ccc2n1 [Compound 6]													143 * (2) µM
COc1cc(CNc2ccc3nc(N)nc(N)c3c2)cc(OC)c1OC [Compound 14, N^6-(3,4,5-Trimethoxybenzyl)quinazoline-2,4,6-triamine]													>100 * (2) µM
Nc1nc(N)c2cc(NCc3ccccc3OC(F)(F)F)ccc2n1 [Compound 12]													44 ± 3 (3) µM
Nc1nc(N)c2cc(NCc3ccc([N+](=O)[O-])cc3)ccc2n1 [Compound 7]													>100 * (2) µM
Nc1nc(N)c2cc(NC(=O)c3ccc([N+](=O)[O-])cc3)ccc2n1 [Compound 4, N-(2,4-Diaminequinazolin-6-yl)-4-nitrobenzamide]	≥10	≥10	10	10 ± 0.4	60	>100 (6) µM	>100 (2) µM						
Nc1nc(N)c2cc(NCc3cccc(O)c3)ccc2n1 [Compound 13]													>100 * (2) µM
Nc1nc(N)c2cc(NCc3ccccc3Cl)ccc2n1 [Compound 8]	4		6.6 ± 0.5	2.3 ± 0.5		8.6 ± 2 (4) µM	8 (2) µM	59			highly toxic for parasites and fibroblasts		
Nc1nc(N)c2cc(NCc3ccc(Cl)cc3)ccc2n1 [Compound 10]	13	≥7	14 ± 1.2	8.9 ± 2	> 150	116 ± 13 (6) µM	>100 (2) µM						
Nc1nc(N)c2cc(NC(=O)c3cccc([N+](=O)[O-])c3)ccc2n1 [Compound 3, N-(2,4-Diaminequinazolin-6-yl)-3-nitrobenzamide]	≥42	≥11	8.9	2.4 ± 0.4	50	>100 (6) µM	>100 (2) µM						
